Measurements from the supplement of paper PMC12463676, “Small-molecule dissolution of stress granules by redox modulation benefits ALS models” (Nature Chemical Biology, 2025).

Experiments:
[1] = compound: NC(=O)CCCCC1CCSS1 [lipoamide]; test: thermal stability z-score vs DMSO; higher = more thermally stabilized by treatment; details: HeLa, lipoamide concentration 100 µM
Protocol: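 Cellular thermal proteome profiling in HeLa cells. Cells were treated with 100 µM lipoamide for 1 h, with or without 1 mM arsenate for a further 1 h, then heated to ten temperatures (37-66.3 °C), and soluble protein was quantified by TMT mass spectrometry relative to 0.1% DMSO controls. The thermal stability score (sum of log2 fold changes minus the abundance score) was transformed to a z-score; mean of n = 3 experiments.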

[2] = compound: O=[As]([O-])(O)O.[K+] [potassium arsenate]; test: as above; details: HeLa; arsenate concentration 1 mM
Protocol: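 Cellular thermal proteome profiling in HeLa cells treated with 1 mM arsenate for 1 h (DMSO pretreatment), heated to ten temperatures (37-66.3 °C). Soluble protein was quantified by TMT mass spectrometry relative to DMSO controls; the thermal stability score was transformed to a z-score; mean of n = 3 experiments.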

[3] = arsenate co-treatment: 1 mM arsenate 1 h
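Also: each temperature applied for 3 min, abundance score taken as mean log2 fold change at the two lowest temperatures, z-score obtained by mean subtraction and division by SD.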

Sequence of UniProt Q96Q15 (Q96Q15 whole entry): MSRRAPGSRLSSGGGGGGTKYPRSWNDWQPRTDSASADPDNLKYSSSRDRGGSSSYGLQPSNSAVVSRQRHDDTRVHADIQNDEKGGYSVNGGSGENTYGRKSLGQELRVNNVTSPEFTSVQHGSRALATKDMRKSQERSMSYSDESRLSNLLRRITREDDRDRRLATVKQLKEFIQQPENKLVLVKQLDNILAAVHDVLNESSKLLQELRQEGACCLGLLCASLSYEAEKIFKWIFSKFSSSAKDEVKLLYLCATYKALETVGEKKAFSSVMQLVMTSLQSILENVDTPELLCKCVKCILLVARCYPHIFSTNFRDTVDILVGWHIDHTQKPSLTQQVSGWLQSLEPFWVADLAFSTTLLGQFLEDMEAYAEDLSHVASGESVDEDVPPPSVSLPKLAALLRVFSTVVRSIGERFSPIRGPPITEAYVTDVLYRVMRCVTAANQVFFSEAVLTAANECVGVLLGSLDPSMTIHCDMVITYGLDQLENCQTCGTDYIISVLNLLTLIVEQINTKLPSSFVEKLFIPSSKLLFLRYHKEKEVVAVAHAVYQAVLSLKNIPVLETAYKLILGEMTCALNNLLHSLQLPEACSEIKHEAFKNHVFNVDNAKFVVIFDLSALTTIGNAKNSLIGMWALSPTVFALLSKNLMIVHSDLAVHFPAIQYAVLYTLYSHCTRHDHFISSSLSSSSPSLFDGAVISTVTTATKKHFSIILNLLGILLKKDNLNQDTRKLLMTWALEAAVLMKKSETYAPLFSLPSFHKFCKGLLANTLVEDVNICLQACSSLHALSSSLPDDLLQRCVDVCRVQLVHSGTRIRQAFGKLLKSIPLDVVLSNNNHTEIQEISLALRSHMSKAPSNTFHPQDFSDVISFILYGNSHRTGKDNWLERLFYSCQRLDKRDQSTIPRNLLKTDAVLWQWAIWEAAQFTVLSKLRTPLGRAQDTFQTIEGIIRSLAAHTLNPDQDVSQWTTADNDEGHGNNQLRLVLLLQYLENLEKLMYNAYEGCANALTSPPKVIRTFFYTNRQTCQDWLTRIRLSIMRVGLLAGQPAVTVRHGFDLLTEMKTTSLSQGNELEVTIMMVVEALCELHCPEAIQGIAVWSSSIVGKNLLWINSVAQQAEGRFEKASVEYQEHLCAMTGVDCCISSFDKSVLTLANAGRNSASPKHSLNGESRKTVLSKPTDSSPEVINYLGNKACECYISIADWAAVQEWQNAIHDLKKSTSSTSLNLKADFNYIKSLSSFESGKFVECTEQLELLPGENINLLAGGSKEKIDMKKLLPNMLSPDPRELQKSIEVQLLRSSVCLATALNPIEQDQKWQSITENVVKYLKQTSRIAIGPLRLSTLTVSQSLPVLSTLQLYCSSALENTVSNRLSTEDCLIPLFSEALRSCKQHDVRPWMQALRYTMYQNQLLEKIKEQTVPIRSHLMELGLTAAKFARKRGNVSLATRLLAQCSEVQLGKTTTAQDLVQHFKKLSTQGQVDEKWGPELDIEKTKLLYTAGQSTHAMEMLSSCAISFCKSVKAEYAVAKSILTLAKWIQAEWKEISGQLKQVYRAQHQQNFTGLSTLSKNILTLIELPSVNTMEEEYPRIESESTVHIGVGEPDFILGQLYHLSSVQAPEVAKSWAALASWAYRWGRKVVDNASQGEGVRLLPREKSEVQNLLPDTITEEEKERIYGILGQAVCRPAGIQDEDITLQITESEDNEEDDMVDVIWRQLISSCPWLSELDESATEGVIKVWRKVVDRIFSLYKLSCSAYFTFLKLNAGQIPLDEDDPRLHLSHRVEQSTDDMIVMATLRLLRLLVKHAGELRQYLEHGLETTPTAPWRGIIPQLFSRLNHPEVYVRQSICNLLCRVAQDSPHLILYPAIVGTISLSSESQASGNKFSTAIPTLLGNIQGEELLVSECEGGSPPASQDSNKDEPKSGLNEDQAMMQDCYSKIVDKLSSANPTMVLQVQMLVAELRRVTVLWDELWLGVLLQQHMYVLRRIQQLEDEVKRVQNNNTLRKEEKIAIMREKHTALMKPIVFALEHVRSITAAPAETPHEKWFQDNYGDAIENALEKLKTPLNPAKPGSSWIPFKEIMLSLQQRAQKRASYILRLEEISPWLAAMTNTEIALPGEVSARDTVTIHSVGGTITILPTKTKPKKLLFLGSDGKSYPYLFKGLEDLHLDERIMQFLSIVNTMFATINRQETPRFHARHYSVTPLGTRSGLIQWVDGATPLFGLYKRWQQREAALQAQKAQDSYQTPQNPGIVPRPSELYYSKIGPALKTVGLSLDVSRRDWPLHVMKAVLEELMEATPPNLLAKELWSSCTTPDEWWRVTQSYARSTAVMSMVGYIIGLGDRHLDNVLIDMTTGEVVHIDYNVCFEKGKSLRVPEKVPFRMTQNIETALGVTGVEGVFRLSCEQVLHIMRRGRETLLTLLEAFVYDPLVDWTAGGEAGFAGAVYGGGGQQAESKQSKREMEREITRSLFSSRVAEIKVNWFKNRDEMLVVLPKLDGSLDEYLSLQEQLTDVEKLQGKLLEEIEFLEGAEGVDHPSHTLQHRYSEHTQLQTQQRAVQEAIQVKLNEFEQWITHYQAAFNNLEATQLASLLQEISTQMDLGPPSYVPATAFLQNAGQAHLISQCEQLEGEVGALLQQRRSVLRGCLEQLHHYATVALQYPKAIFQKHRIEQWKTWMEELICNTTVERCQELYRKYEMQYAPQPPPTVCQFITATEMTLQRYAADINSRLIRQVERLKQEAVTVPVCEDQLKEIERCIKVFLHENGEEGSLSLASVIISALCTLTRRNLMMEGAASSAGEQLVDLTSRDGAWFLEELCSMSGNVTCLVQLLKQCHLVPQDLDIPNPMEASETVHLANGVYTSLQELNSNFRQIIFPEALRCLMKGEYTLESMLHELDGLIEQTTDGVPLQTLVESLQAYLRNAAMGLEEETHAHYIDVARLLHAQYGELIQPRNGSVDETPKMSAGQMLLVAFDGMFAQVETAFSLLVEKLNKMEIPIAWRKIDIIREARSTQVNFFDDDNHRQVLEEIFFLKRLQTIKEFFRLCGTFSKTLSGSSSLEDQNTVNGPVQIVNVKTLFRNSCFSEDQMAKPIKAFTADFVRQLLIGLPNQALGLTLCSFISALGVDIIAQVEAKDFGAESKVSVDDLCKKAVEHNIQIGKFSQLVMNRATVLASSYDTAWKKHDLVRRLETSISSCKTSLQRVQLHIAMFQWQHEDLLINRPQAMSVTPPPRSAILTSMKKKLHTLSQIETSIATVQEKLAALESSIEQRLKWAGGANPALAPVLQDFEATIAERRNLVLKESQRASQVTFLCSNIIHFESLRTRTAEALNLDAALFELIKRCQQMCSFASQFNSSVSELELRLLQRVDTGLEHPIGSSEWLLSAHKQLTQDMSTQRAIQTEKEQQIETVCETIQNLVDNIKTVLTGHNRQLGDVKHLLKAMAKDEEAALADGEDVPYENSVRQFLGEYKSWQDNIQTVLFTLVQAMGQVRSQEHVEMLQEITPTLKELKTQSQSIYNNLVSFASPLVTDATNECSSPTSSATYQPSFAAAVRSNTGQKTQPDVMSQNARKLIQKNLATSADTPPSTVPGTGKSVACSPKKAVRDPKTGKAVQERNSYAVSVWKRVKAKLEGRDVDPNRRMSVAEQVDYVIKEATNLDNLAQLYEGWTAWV
Sequence of UniProt Q9UL54 (Q9UL54 whole entry): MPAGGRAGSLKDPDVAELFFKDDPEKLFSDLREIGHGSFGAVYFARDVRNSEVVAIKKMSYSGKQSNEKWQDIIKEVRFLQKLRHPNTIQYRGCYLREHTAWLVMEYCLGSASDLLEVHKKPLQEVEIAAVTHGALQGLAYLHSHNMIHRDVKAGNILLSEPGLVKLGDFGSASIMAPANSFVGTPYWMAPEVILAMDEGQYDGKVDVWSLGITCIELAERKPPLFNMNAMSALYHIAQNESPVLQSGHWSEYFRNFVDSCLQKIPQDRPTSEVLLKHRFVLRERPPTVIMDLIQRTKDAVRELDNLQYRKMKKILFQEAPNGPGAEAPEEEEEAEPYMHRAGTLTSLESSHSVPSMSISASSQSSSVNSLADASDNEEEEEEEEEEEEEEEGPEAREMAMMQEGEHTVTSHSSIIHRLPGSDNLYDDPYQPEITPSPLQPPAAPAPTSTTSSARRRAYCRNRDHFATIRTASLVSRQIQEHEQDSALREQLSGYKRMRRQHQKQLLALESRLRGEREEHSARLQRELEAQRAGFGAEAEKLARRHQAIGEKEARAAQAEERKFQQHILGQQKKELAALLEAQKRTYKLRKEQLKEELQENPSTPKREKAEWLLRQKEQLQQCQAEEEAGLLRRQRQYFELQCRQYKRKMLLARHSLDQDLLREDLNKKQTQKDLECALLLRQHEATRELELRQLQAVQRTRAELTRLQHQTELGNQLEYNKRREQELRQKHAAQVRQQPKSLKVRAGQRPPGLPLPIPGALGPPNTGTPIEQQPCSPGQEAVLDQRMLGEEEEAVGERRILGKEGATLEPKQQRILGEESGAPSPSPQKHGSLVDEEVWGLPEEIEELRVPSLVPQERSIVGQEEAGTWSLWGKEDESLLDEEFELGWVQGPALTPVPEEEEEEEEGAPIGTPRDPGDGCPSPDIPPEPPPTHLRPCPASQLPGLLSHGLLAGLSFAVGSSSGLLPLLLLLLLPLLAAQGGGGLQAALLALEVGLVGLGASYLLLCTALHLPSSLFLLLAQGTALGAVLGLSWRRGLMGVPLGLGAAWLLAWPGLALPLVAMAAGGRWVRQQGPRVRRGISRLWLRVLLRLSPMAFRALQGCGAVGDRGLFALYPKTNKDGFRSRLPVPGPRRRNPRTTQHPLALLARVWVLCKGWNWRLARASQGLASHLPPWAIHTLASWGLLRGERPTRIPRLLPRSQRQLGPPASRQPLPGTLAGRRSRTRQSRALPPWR
Sequence of UniProt Q8IWD4 (Q8IWD4 whole entry): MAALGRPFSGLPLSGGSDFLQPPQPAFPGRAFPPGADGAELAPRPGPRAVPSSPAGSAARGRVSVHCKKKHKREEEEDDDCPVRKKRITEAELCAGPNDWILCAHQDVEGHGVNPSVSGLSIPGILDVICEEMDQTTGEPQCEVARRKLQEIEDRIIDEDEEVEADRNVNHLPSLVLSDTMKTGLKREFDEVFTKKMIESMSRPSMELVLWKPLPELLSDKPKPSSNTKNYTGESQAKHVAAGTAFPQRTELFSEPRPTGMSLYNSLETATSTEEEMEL

Target | thermal stability z-score [1, 3] | thermal stability z-score ([1]; arsenate co-treatment: none) | thermal stability z-score [2]
MRPL19 (UniProt P49406) | -0.287 | -0.00717 | 0.274
SF3B6 (UniProt Q9Y3B4) | -0.787 | -0.165 | -0.667
RBM19 (UniProt Q9Y4C8) | 0.0627 | 0.309 | 0.649
HDAC1 (UniProt Q13547) |  | 3.56 | -0.601
BCL7B (UniProt Q9BQE9) | 3.46 | 2.78 | 0.537
CNNM4 (UniProt Q6P4Q7) | 0.923 | 0.49 | 0.213
PRG4 (UniProt Q92954) | -2.2 | -2.18 | 0.248
MRPL37 (UniProt Q9BZE1) | -0.398 | -0.403 | -0.0807
KDELC1 (UniProt Q6UW63) | -2.9 | -2.19 | 0.422
C11ORF73 (UniProt Q53FT3) | 0.0228 | 0.0059 | -0.162
MARK2 (UniProt Q7KZI7) | -0.0322 | 0.0698 | 0.0503
CARNMT1 (UniProt Q8N4J0) | -0.0735 | -0.179 | 0.59
UNG (UniProt P13051) | -0.772 | -1.08 | -0.665
DCP2 (UniProt Q8IU60) | -0.0416 | 0.195 | -0.203
USP33 (UniProt Q8TEY7) | -0.155 | -0.011 | 1.21
BACE2 (UniProt Q9Y5Z0) | -0.766 | -0.974 | 1.09
ATF6 (UniProt P18850) | -0.0284 | -0.0127 | -0.177
SH3PXD2A (UniProt Q5TCZ1) | -0.325 | -1.05 | 0.207
DNAJC7 (UniProt Q99615) | -0.214 | 0.475 | -0.656
SOCS6 (UniProt O14544) | 0.0176 | 0.0429 | 0.053
REPS2 (UniProt Q8NFH8) | 0.13 | -0.0113 | -0.0535
OSTF1 (UniProt Q92882) | -0.217 | 0.551 | 0.00115
RBM28 (UniProt Q9NW13) | -0.0361 | -0.0267 | -0.81
CHRAC1 (UniProt Q9NRG0) | -0.123 | 0.285 | -0.28

Target | thermal stability z-score [1, 3] | thermal stability z-score ([1]; arsenate co-treatment: none) | thermal stability z-score [2]
JMJD1C (UniProt Q15652) | 0.559 | -0.396 | -0.398
SMG1 (UniProt Q96Q15) | -0.284 | -0.117 | 0.119
ALDH1L2 (UniProt Q3SY69) | -0.223 | 0.327 | 0.559
WDR36 (UniProt Q8NI36) | 0.0966 | 0.698 | -0.285
FZD6 (UniProt O60353) | -1.56 | -1.7 | 0.376
DTX2 (UniProt Q86UW9) | -0.228 | 0.0239 | -0.381
COG1 (UniProt Q8WTW3) | -0.441 | -0.42 | 0.183
KIAA1468 (UniProt Q9P260) | 0.284 | 0.0862 | -0.0466
TICAM1 (UniProt Q8IUC6) | -0.187 | -0.204 | -0.325
FGF2 (UniProt P09038) | -0.298 | 0.269 | -1.74
FAM188A (UniProt Q9H8M7) | 0.53 | 0.885 | 1.07
ABCF1 (UniProt Q8NE71) | -0.384 | -0.353 | 1.14
CXADR (UniProt P78310) | 0.11 | 0.273 | 0.0224
TBC1D2B (UniProt Q9UPU7) | -0.169 | -0.202 | -0.23
NOP56 (UniProt O00567) | 0.756 | -0.0331 | 0.516
NLE1 (UniProt Q9NVX2) | 0.481 | 0.2 | -2.71
NAPA (UniProt P54920) | 0.374 | 0.143 | 1.02
YTHDF1 (UniProt Q9BYJ9) | 0.00152 | -0.0393 | -0.193
RPTOR (UniProt Q8N122) | 0.0585 | 0.132 | 0.227
ATP5J2 (UniProt P56134) | 0.46 | 0.37 | -0.0845
NHS (UniProt Q6T4R5) | -0.604 | 0.0609 | -0.851
PLEKHO2 (UniProt Q8TD55) | 0.146 | 0.015 | -0.257
CCNT1 (UniProt O60563) | 0.149 | 0.145 | 0.178
MARK1 (UniProt Q9P0L2) | -0.126 | -0.153 | 0.249

Target | thermal stability z-score [1, 3] | thermal stability z-score ([1]; arsenate co-treatment: none) | thermal stability z-score [2]
ATF1 (UniProt P18846) | 1.13 | 1.84 | -0.0555
MYADM (UniProt Q96S97) | 0.0599 | 0.353 | 1.34
PHKB (UniProt Q93100) | 0.125 | 0.135 | 0.278
ABL2 (UniProt P42684) | -0.0711 | -0.109 | -0.0185
LENG9 (UniProt Q96B70) | -0.216 | -0.193 | -0.307
TTC1 (UniProt Q99614) | -0.0842 | 0.337 | -0.104
DAXX (UniProt Q9UER7) | -0.0224 | -0.149 | -0.391
TMEM97 (UniProt Q5BJF2) | 0.385 | 0.189 | 0.108
ATR (UniProt Q13535) | -0.0437 | 0.124 | -0.568
PRPF8 (UniProt Q6P2Q9) | -0.186 | -0.395 | -0.418
TAOK2 (UniProt Q9UL54) | -0.161 | -0.0781 | -0.0359
AIMP1 (UniProt Q12904) | 0.288 | 0.163 | 0.717
CCDC117 (UniProt Q8IWD4) | -0.191 | -0.317 | -0.388
MRPL30 (UniProt Q8TCC3) | -0.325 | 0.266 | 0.112
EED (UniProt O75530) | 0.547 | 0.145 | -0.276
NARFL (UniProt Q9H6Q4) | 0.327 | 0.0715 | -0.0417
COL12A1 (UniProt Q99715) | -3.01 | -2.92 | 0.59
ABCD1 (UniProt P33897) | -0.752 | -0.422 | 0.118
PVR (UniProt P15151) | -0.158 | -0.0762 | 0.0637
ZNF207 (UniProt O43670) | 0.132 | -0.22 | 0.167
COPS6 (UniProt Q7L5N1) | 0.0852 | -0.522 | -0.236
NUMBL (UniProt Q9Y6R0) | 0.0444 | 0.451 | -1.68
MRPL43 (UniProt Q8N983) | -0.191 | 0.245 | 0.166
NOA1 (UniProt Q8NC60) | 0.222 | 0.0658 | -0.0924
